Experimental data reported in patent US9745339B2 (GRAFFINITY PHARMACEUTICALS GMBH, priority 2012, dated 2017).

Tests used:
Cetuximab = assay: Microtiter plate chromatography of resins: binding and elution of Cetuximab; details: fraction of injected protein bound; 0.5 mg/ml IgG in PBS pH 7.3
How it was run: (§1)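 About 30 μl resin columns loaded with 3.3 cv IgG at 0.5 mg ml^−1 in PBS (or undiluted HCP), washed with 5 cv PBS, eluted with 5 cv glycine pH 2.5. Fractions quantified by Bradford; bound fraction = (mi−mft)/mi, yield = me/mi.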

[1] = Alkaline stability of ligands in 0.5 M sodium hydroxide; format: physicochemical; details: 25° C., 8 days, hydrolysis monitored by LC-MS, read-out: t0.5 (half-life) (converted)
Procedure: A subset of ligands from Example 1 was tested for its alkaline stability. Ligands were treated with 0.5 M sodium hydroxide at 25° C. for 8 days. Hydrolysis was monitored by LC-MS analysis.

Bevacizumab [2] = molecular target: T1, Bevacizumab (Homo sapiens, UniProt P01857); assay: Microtiter plate chromatography of resins: binding and elution of Bevacizumab; details: for Bevacizumab Bound: fraction of injected protein bound, 0.5 mg/ml IgG in PBS pH 7.3, ligand immobilized on SEPHAROSE 4 FF; for Bevacizumab Yield: mass eluted (glycine pH 2.5) / mass injected
T1 construct: 0.5 mg/ml IgG in PBS pH 7.3; ligand immobilized on SEPHAR; Bevacizumab Yield; other: mass eluted (glycine pH 2.5) / mass injected; kd (dissociation constant, Langmuir isotherm); other: Bevacizumab 0.05-5 mg/ml in PBS pH 7.3, 25° C., at least 3 h; qm (maximum capacity); other: mg Bevacizumab per ml of resin; Langmuir isotherm; t0; fused on or other part: Humanized anti-VEGF-A VH domain joined N-terminally to the IGHG1 constant region (engineered, no UniProt entry)
How it was run: (§2)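 About 30 μl packed resin columns loaded with 3.3 cv IgG at 0.5 mg ml^−1 in PBS or undiluted HCP, washed with 5 cv PBS, eluted with 5 cv glycine pH 2.5. Protein in fractions by Bradford. Bound fraction = (injected − flowthrough)/injected; yield = eluted/injected; selectivity = Bevacizumab bound fraction / HCP bound fraction, truncated beyond 10.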

[3] = test system: poly-IgG from human serum (h-poly-IgG); assay: Microtiter plate chromatography of resins: binding and elution of human poly-IgG; details: fraction of injected protein bound; 0.5 mg/ml IgG in PBS pH 7.3
How it was run: as §1

Bevacizumab [4] = molecular target: T1, Bevacizumab; assay: Uptake kinetics by batch adsorption (time-scale of binding); details: time after which 80% of equilibrium saturation occurred; 0.75 mg/ml Bevacizumab in PBS, 25° C.
Procedure: Uptake kinetics was investigated similarly by batch adsorption in 96-well filter plates. Again, 10 μl of sorbent slurry (50% v/v) were mixed with 100 μl of protein solution. […] Reactions were agitated vigorously at 25° C. for up to 80 min. Supernatants were separated rapidly by spinning through filters after 2.5, 5, 10, 20, 40 and 80 minutes and sampled for analysis. Concentrations of the antibody were analyzed by Bradford assay.
For determination of t0.8, measured concentrations in the supernatant were interpolated by fitting of double-exponentials and values of t0.8 were read out from graphs (2).

Bevacizumab [5] = molecular target: T1, Bevacizumab; assay: Langmuir isotherms by batch adsorption; format: binding; details: for Kd: Bevacizumab 0.05-5 mg/ml in PBS pH 7.3, 25° C., at least 3 h, read-out: kd (dissociation constant, Langmuir isotherm) (converted); for qm (maximum capacity): mg Bevacizumab per ml of resin, Langmuir isotherm
Procedure: Experiments were performed with Bevacizumab as antibody. Parameters of Langmuir isotherms for purified antibody were determined by batch adsorption experiments in 96-well microtiter plates. In each well, 10 μl of sorbent slurry (50% v/v) were mixed with 100 μl of protein solution. Initial concentrations varied from 0.05-5 mg/ml in phosphate-buffered saline (0.15 M NaCl, 20 mM phosphate buffer, pH 7.3; PBS). Reactions were agitated vigorously at 25° C. for at least 3 h. Afterwards, antibody concentration in the supernatants were measured by Bradford assay. Data was evaluated by direct fitting of the values with the Langmuir isotherm equation (1).
Parameters of Langmuir isotherms, i.e. dissociation constants Kd and maximum capacities qm, were determined from the measured concentrations in the supernatants. Parameters were estimated by numerical fitting of the model equation derived by Chase (1)

Palivizumab = assay: Microtiter plate chromatography of resins: binding and elution of Palivizumab; details: fraction of injected protein bound; 0.5 mg/ml IgG in PBS pH 7.3
How it was run: as §1

host cell proteins (HCP) = assay: Microtiter plate chromatography of resins: binding of host cell proteins; design: species or system CHO cell culture; details: fraction of injected undiluted host cell proteins bound
How it was run: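 Undiluted HCP-containing flowthrough from protein A chromatography of CHO serum-free culture was loaded onto ~30 µl packed resin columns in microtiter-plate format. Columns were washed with 5 cv PBS and eluted with glycine pH 2.5, and fractions were quantified by Bradford. Bound fraction = (injected − flowthrough mass)/injected mass.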

Tocilizumab = assay: Microtiter plate chromatography of resins: binding and elution of Tocilizumab; details: fraction of injected protein bound; 0.5 mg/ml IgG in PBS pH 7.3
How it was run: as §1

Bevacizumab [6] = assay: Microtiter plate chromatography of resins: binding and elution of Bevacizumab; details: fraction of bound Bevacizumab divided by fraction of bound HCP; truncated for values beyond 10
How it was run: as §2

Row | SMILES | Cetuximab Bound (Cetuximab) [%] | half-life [1] [days] | Bevacizumab Bound (Bevacizumab [2]) [%] | Bevacizumab Yield (Bevacizumab [2]) [%] | h-poly-IgG Bound [3] [%] | t0.8 (time-scale of binding) (Bevacizumab [4]) [min] | Kd (Bevacizumab [5]) [µM] | qm (maximum capacity) (Bevacizumab [5]) [mg/mL] | Palivizumab Bound (Palivizumab) [%] | HCP Bound (host cell proteins (HCP)) [%] | Tocilizumab Bound (Tocilizumab) [%] | Selectivity (Bevacizumab [6])
1 | NCCCn1cnc2cc(C(=O)Nc3nc(-c4ccccn4)cs3)ccc21 [Ligand L23, 1-(3-Amino-1-propyl)benzimidazole-5-carboxylic acid N-[4-(2-pyridyl)thiazol-2-yl] amide] | 100 | > 41.6 | 100 | 107 | 100 | 7.7 | 122 | 46 | 100 | 13 | 100 | 
2 | CCc1nc2cc(C(=O)Nc3nnc(-c4ccco4)s3)ccc2n1CCCN [Ligand L44, 1-(3-Amino-1-propyl)-2-ethylbenzimidazole-5-carboxylic acid N-[5-(2-furyl)-1,3,4-thiadiazol-2-yl] amide] | 100 | > 41.6 | 100 | 88 | 100 | 7.7 | 265 | 53 | 100 | 16 | 100 | 
3 | NCCCn1cnc2cc(C(=O)Nc3nncs3)ccc21 [Ligand L13, 1-(3-Amino-1-propyl)benzimidazole-5-carboxylic acid N-(1,3,4-thiadiazol-2-yl) amide] | 100 | > 41.6 | 100 | 98 | 97 | 7.0 |  | 37 | 97 | 21 | 100 | 
4 | Cn1nc(C(=O)Nc2ccc3c(c2)ncn3CCCN)c2ccccc21 [Ligand L01, 1-(3-Amino-1-propyl)-5-[(1-methylindazol-3-yl)carboxamido]benzimidazole] | 100 | 35 | 100 | 90 | 100 | 9.2 | 210 | 40 | 99 | 33 | 100 | 
5 | CCc1nc2cc(C(=O)Nc3nc(-c4ccccn4)cs3)ccc2n1CCCN [Ligand L43, 1-(3-Amino-1-propyl)-2-ethylbenzimidazole-5-carboxylic acid N-[4-(2-pyridyl)thiazol-2-yl] amide] | 100 | > 41.6 | 100 | 95 | 100 | 8.2 | 399 | 43 | 98 | 18 | 100 | 
6 | Cc1nc2cc(C(=O)Nc3nnc(-c4ccco4)s3)ccc2n1CCCN [Ligand L39, 1-(3-Amino-1-propyl)-2-methylbenzimidazole-5-carboxylic acid N-[5-(2-furyl)-1,3,4-thiadiazol-2-yl] amide] | 100 | > 41.6 | 100 | 85 | 100 | 7.8 |  | 49 | 100 | 10 | 100 | 
7 | NCCCNc1ccc(C(=O)Nc2nc(-c3ccccn3)cs2)cn1 [Ligand L40, 6-[(3-Amino-1-propyl)amino]nicotinic acid N-[4-(2-pyridyl)thiazol-2-yl] amide] | 100 | 32.6 | 100 | 101 | 98 | 9.2 |  | 39 | 89 | 20.5 | 99 | 
8 | NCCCn1cnc2cc(C(=O)Nc3nc(-c4ccncc4)cs3)ccc21 [Ligand L47, 1-(3-Amino-1-propyl)benzimidazole-5-carboxylic acid N-[4-(4-pyridyl)thiazol-2-yl] amide] | 100 | > 41.6 | 100 | 100 | 100 | 5.6 | 169 | 43 | 98 | 13 | 99 | 
9 | NCCCn1c(=O)[nH]c2cc(C(=O)Nc3nnc(-c4ccco4)s3)ccc21 [Ligand L24, 1-(3-Amino-1-propyl)-2-oxo-2,3-dihydrobenzimidazole-5-carboxylic acid N-[5-(2-furyl)-1,3,4-thiadiazol-2-yl] amide] | 100 | > 41.6 | 100 | 101 | 100 | 9.4 | 583 | 42 | 100 | 12 | 100 | 
10 | COc1nc2cc(C(=O)Nc3nnc(-c4ccco4)s3)ccc2n1CCCN [Ligand L45, 1-(3-Amino-1-propyl)-2-methoxybenzimidazole-5-carboxylic acid N-[5-(2-furyl)-1,3,4-thiadiazol-2-yl] amide] | 100 | > 41.6 | 100 | 93 | 100 |  |  |  | 100 | 15 | 100 | 6.7
